{
  "source": "patent US9060997B2",
  "about": "“Antifolate compounds for the treatment of melanoma” (UNIVERSIDAD DE MURCIA, priority 2007, dated 2015)",
  "key": {"[1]": {"tested_on": "Caco-2 cells", "test": "MTT cell proliferation assay, Caco-2", "type": "cell-based, human", "details": "Homo sapiens, 144 h; Caco-2, 6 days of treatment", "description": "(§1) Four human cancer cells lines (SkMel-28, MCF7, H1264 and Caco-2) were obtained from the American Type Tissue Culture Collection (ATCC) and were maintained in appropriate culture mediums supplemented with 10% fetal calf serum (FCS) and antibiotics, under standard tissue culture conditions (e.g. modified Eagle's medium (MEM) containing 1 mM sodium pyruvate and 10% fetal bovine serum (FES) under 5% CO2/95% air atmosphere.). Cell injury was evaluated by a colorimetric assay for mitochondrial function using the 3-(4,5-dimethylthiazolyl-2)-2,5-diphenyltetrazolium bromide (MTT) cell proliferation assay. For this assay cells were plated in a 96-well plate at a density of 1000 cells/well and grown until they reached 50-60% confluence. Human epidermal melanocytes (HeM) were supplied by Gentaur and were cultured in HAM-F10 medium supplemented with 10% FCS, antibiotics and the human melanocyte growth supplement (Gentaur)."}, "[2]": {"tested_on": "MCF7 cells", "test": "MTT cell proliferation assay, MCF7", "type": "cell-based", "details": "Homo sapiens, 144 h; MCF7, 6 days of treatment", "description": "as §1"}, "[3]": {"target": "T1, rHDHFR (Homo sapiens, UniProt P00374)", "T1 construct": "purchased Sigma", "T1 sequence (P00374 1-187)": "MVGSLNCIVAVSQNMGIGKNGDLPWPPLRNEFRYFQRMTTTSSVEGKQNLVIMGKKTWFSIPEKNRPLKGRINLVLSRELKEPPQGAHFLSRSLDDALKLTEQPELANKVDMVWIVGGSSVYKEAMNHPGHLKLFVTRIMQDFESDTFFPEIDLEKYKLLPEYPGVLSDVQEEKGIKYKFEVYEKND", "test": "rHDHFR binding: fluorescence titration and stopped-flow fluorescence", "description": "The experiments were carried out in a buffer containing 2-(N-morpholino)ethanesulfonic acid (Mes, 0.025 M), sodium acetate (0.025 M), tris-(hydroxymethyl)aminomethane (Tris 0.05 M), and NaCl (0.1 M) at pH 7.4 and 25° C. in the presence of QM and rHDHFR (0.5 μM).\nStopped-flow fluorescence experiments were carried out at pH 7.4 and 25° C. using an enzyme concentration of 0.25 μM. The reaction of rHDHFR with inhibitors was observed under pseudo-first order conditions by fluorescence at 340 nm (excitation at 290 nm). The data points s are the means of at least 3 (normally 5) repeat observations±SD. […] Aliquots (20 μl) of the incubation mixture was then diluted 50-fold into a reaction mixture containing the buffer, NADPH (100 μM), and DHF (10 μM) to give a final enzyme concentration of 1.5 nM.\n(§2) The activity of rHDHFR was determined at 25° C. by following the decrease in the absorbance of NADPH and DHF at 340 nm (ε=11800 M-1 cm−1) (Stone and Morrison, 1986). Progress curves were obtained under ordered conditions ([NADPH]>>[DHF]). rHDHFR inhibition constants were calculated as described by Navarro-Perán et al., 2005b. The dissociation constant for the binding of inhibitors to free rHDHFR was determined at 25° C. by fluorescence titration in an automatic-scanning Perkin-Elmer LS50B spectrofluorimeter. Fluorescence emission spectra were recorded when rHDHFR fluorescence was excited at 290 nm. Stopped-flow fluorescence experiments were carried out using an Applied Photophysics Ltd. Pi-Star 180 spectrometer with a stopped-flow unit at 25° C."}, "[4]": {"target": "T1, rHDHFR", "test": "rHDHFR inhibition, progress curves", "type": "biochemical", "description": "The experiments were carried out in the same buffer as fluorescence experiments in the presence of NADPH (100 μM), DHF (10 μM), and rHDHFR (1.5 nM).\nas §2"}, "[5]": {"tested_on": "B16 melanoma", "test": "Mouse tumor model, B16 melanoma, topical TMECG cream", "type": "in vivo", "description": "Female C57/B16 mice 6-8 weeks old were obtained from the Animal Research Service (University of Murcia, Spain) and were housed in our animal facilities. All animal work was performed in accordance with the government guidelines. The B16 melanoma cell line (ATCC) was culture in RPMI 1640 medium under standard tissue culture conditions. Mice were shaved on the back using a long-hair cutter and 7.5×10^5 B16 melanoma cells resuspended in 25 μl sterile PBS were injected intradermally on the back. Animals with tumors more than 8 mm in diameter on day 8 or nonvisible tumor growth by day 12 were excluded. Groups consisting of 20 mice per group were differently treated starting at day 8 after tumor cell injection. For TMECG treatments this compound was uniformly mixed in a cosmetic base cream (Thae, Murcia, Spain). Topical treatment of TMECG was given every day at a dose of ≈1 mg/cm2 skin area. Control mice (non-TMECG treated) were topically treated with the some amount of cream alone. Tumor growth and body weight were monitored every second day. A postmortem with histological examination of the lung, liver and brain was performed in all animals. Tissues were fixed in 10% formaldehyde, dehydrated and embedded in paraffin wax. Sections (4 μm) were stained with eosin and hematoxylin. Analyses of gluconic acid content in lungs were carried out as described elsewhere (Pradeep and Kuttan, 2002)."}, "[6]": {"tested_on": "B16/F10 melanoma cell tumours", "test": "Primary tumour model, B16/F10 melanoma in C57/B16 mice", "type": "in vivo, mouse", "source_text": "Translational therapy was then designed to probe the efficacy of this combination on mice induced melanoma tumor. Injection of 5×10^5 B16/F10 melanoma cells in the back of C57/B16 mice formed a blackish tumor mass, which in untreated control mice reached to a tumor area of 3.7±0.7 and 9.3±1.1 cm2 in female and male, respectively, after 21 days of cells inoculation."}, "[7]": {"tested_on": "SkMel-28 cells", "test": "Microscopy of melanosome melanin content", "type": "cell-based, human", "details": "treated SkMel-28 versus untreated", "description": "Confluent monolayers of SkMel-28 were harvested with a mixture of 0.05% trypsin, 0.53 mmol/L EDTA and washed once in 0.25 mol/L sucrose by centrifugation at 700×g for 5 min at 4° C. They were then homogenized on ice using 20 strokes of an ice-cold Dounce homogenizer and centrifuged at 700×g for 10 min at 4° C. The resultant postnuclear supernatant was centrifuged at 17,000×g for 15 min at 4° C. to yield a melanosome-enriched granular fraction (17). This fraction was resuspended in 0.5-2 ml of ice-cold 0.25 mol/L sucrose, 10 mmol/L HEPES, pH 7.0 and fixed for 1 h at room temperature in 2% glutaraldehyde, 2% paraformaldehyde in 0.1 mol/L sodium cacodylate buffer, pH 7.3. The fixative was then removed and the samples stored in PBS containing 4% sucrose at 4° C. Samples were subsequently dehydrated with graded alcohols and embedded in epoxy resin. This section were stained with uranyl acetate and lead citrate and examined with a Zeiss EM10 electron microscope."}, "[8]": {"details": "treated for 21 days, post-mortem"}},
  "data": [
    {"compound": "COc1cc(C(=O)O[C@@H]2Cc3c(O)cc(O)cc3O[C@@H]2c2ccc(O)c(O)c2)cc(OC)c1OC", "note": "[TMECG, 3-O-(3,4,5-trimethoxybenzoyl)-(−)-epicatechin]", "values": [
      {"measurement": "IC50", "setting": "[1]", "result": 33, "unit": "µM"},
      {"measurement": "IC50", "setting": "[2]", "result": 80, "unit": "µM"},
      {"measurement": "koff", "setting": "[3]; calculated from KI=koff/kon, read-out: koff", "result": 0.29, "unit": "s⁻¹"},
      {"measurement": "Ki", "setting": "[3]; dissociation constant, free rHDHFR, fluorescence titration, pH 7.4, 25° C.", "result": 2.1, "unit": "µM"},
      {"measurement": "kon", "setting": "[3]; stopped-flow fluorescence, pH 7.4, 25° C., read-out: kon", "result": 140000, "unit": "M⁻¹ s⁻¹"},
      {"measurement": "Decrease % further EI reactions", "setting": "[4]; decrease of KI to KI* by further EI-complex reactions", "result": "19 −fold"},
      {"measurement": "Ki", "setting": "[4]; read-out: effective inhibition constant (KI*)", "result": 0.11, "unit": "µM"},
      {"measurement": "tumor growth", "setting": "[5]; topical, ≈1 mg/cm2 skin area every day", "result": "significantly reduced"},
      {"measurement": "survival time", "setting": "[5]; topical, ≈1 mg/cm2 skin area every day, female C57/B16 mice", "result": "longer survival time"},
      {"measurement": "liver and brain metastasis", "setting": "[5]; [8]", "result": "no metastasis in these organs was detected"},
      {"measurement": "lung metastasis", "setting": "[5]; [8]", "result": "drastically reduced lung metastasis"},
      {"measurement": "tumor mass reduction", "setting": "[6]; females, TMECG 2.5 mg/Kg/d", "result": 27, "unit": "%"},
      {"measurement": "effect of single treatments", "setting": "[6]; male mice", "result": "not effective"},
      {"measurement": "melanosome melanin content", "setting": "[7]", "result": "much less melanin content"}
    ]}
  ]
}
